According to patent publication US5569471A, “Medicine for the treatment of tumor” (priority 1993, dated 1996):
Entries after “also recorded” stand apart in the source; their conditions may differ.

What was measured:
T-ALL cells [1] = experiment: Test for confirming the effect of enhancing antitumor activity by successive dosage; format: cell-based, human; details: FIG. 3
Experimental: The tumor cell killing effect was investigated by successively administering 4-piperidino-piperidine and an antitumor drug to T-ALL cells.
First, T-ALL cells were cultured in a plurality of culture media containing 4-piperidino-piperidine at different concentrations (2.5, 12.5, 25 and 50 μg/ml) for 6 days. […] The results are shown in FIG. 3, which employes a relative expression where the number of lethal cells in the standard cell groups was taken as 100% (shown by a horizontal perforated line). The numbers 1, 2, 3 and 4 given for each drug indicate that the concentration of 4-piperidino-piperidine used for the culture is 2.5, 12.5, 25 and 50 μg/ml, respectively.

[2] = test system: human myeloblastic leukemia cells (K-562); experiment: Test for confirming the effect of enhancing antitumor activity by a simultaneous dosage, K-562 cells; format: cell-based; details: 4-piperidino-piperidine 2.5 μg/ml simultaneously; drug doses of Table 3; FIG. 5
Experimental: (§1) The numbers of the lethal cells were counted in cases where 4-piperidino-piperidine (2.5 μg/ml) and each of the ten kinds of the antitumor drugs listed in Table 3 were simultaneously dosed (in small amounts and large amounts for each drug), and where the ten kinds of the antitumor drugs were independently and singly dosed (in small amounts and large amounts for each drug).
(§2) The procedure of Example 9 was repeated by using human myeloblastic leukemia cells (K-562) in place of the T-ALL cells.

T-ALL cells [3] = experiment: Test for confirming the effect of enhancing antitumor activity by a simultaneous dosage, T-ALL cells; format: cell-based, human; details: 4-piperidino-piperidine 2.5 μg/ml simultaneously, FIG. 4
Experimental: as §1, §2

[4] = test system: cisplatin-resistant human myeloid leukemia cells (K-562); experiment: Test for confirming the resistance dissolving effect, cisplatin-resistant cells; format: cell-based; details: FIG. 2; for cell killing effect, single dose: 4-piperidino-piperidine 2.5 μg/ml alone, cisplatin 1 alone, vs control
Text: As drug-fast cells, two kinds of human myeloid leukemia cells (K-562) which had acquired drug resistance against adriamycin (ADR) and cisplatin were used (see Kaoru MIURA, et al., "NK and LAK cell sensitivity and HLA expression" 51st Conference of Japan Cancer Association, page 252, 1992; and Nobutaka IMAIZUMI, Yoichiro KUSUKI, Chie KAWACHI, et al., "Establishing adriamycin-resistant strains and review on the mechanism of resistance", Oncologoa, 21, 89-94, 1988). In the test, adriamycin (ADR), cisplatin, and 4-piperidino-piperidine were dosed singly or in combination against the two kinds of the drug-fast cells, and the number of the lethal cells were counted.

[5] = test system: T-cells derived from human acute leukemia (RPMI-8402, T-ALL cells); experiment: Test for confirming the inhibitory effect on tumor cell propagation (6-day culture, counting of lethal and propagated cells); format: cell-based; details: 2.5, 12.5, 25, 50, 80 and 100 μg/ml, FIG. 1
Experimental: To samples of T-cells derived from human acute leukemia (RPMI-8402, T-ALL cells, see Minowada, J. and Moore, G. E., In Comparative Leukemia Research, Eds. Ito, Y. and Dutcher, R. M., Univ. Tokyo Press, Tokyo, pp. 251-261, 1975), 4-piperidino-piperidine (4-PP) in various concentrations was added (0, 2.5, 12.5, 25, 50, 80 and 100 μg/ml). After a 6-day culture, lethal cells and propagated cells were counted.

Toxicity test = details: in vivo; species and route not given
Experimental: The LD50 value of 4-piperidino-piperidine is about 200 to 300 mg/kg. Therefore, ordinary dose will not cause any risk.

[6] = in the concentration of 0.05 μg/ml
[7] = 4-piperidino-piperidine precedently dosed at 12.5, 25 and 50 μg/ml, DNR 0.05, 5-FU 10 μg/ml
[8] = both drug concentrations (DNR 0.01/0.05, ACR 0.05/0.1, 5-FU 5/10 μg/ml)
[9] = 4-piperidino-piperidine precedently dosed, all concentration groups (2.5, 12.5, 25 and 50 μg/ml), ACR 0.05, MTX 0.01 μg/ml

SMILES: O=C1c2c(O)ccc(O)c2C(=O)c2c(NCCNCCO)ccc(NCCNCCO)c21 [Mitoxantrone]
- enhancement of antitumor drug effect (lethal cells relative to standard cells) (T-ALL cells [1]; 4-piperidino-piperidine precedently dosed at 2.5 and 50 μg/ml, mitoxantrone 0.05 μg/ml): enhanced effects
- enhancement of antitumor activity by combined use with 4-piperidino-piperidine [2]: enhanced

SMILES: COc1cccc2c1C(=O)c1c(O)c3c(c(O)c1C2=O)C[C@@](O)(C(=O)CO)C[C@@H]3O[C@H]1C[C@H](N)[C@H](O)[C@H](C)O1 [ADR]
- enhancement of antitumor activity by combined use with 4-piperidino-piperidine (T-ALL cells [3]; [6]): enhanced
- enhancement of antitumor activity by combined use with 4-piperidino-piperidine [2]: enhanced

SMILES: CC[C@]1(O)C[C@@H]2CN(CCc3c([nH]c4ccccc34)[C@@](C(=O)OC)(c3cc4c(cc3OC)N(C)[C@H]3[C@@](O)(C(N)=O)[C@H](O)[C@]5(CC)C=CCN6CC[C@]43[C@@H]65)C2)C1 [VDS]
- enhancement of antitumor activity by combined use with 4-piperidino-piperidine (T-ALL cells [3]; [6]): enhanced
- enhancement of antitumor activity by combined use with 4-piperidino-piperidine [2]: enhanced

SMILES: COc1cc([C@@H]2c3cc4c(cc3[C@@H](O[C@@H]3O[C@@H]5CO[C@@H](C)O[C@H]5[C@H](O)[C@H]3O)[C@H]3COC(=O)[C@H]23)OCO4)cc(OC)c1O [etoposide]
- enhancement of antitumor activity by combined use with 4-piperidino-piperidine [2]: enhanced

SMILES: CC[C@]1(O)C[C@H]2CN(CCc3c([nH]c4ccccc34)[C@@](C(=O)OC)(c3cc4c(cc3OC)N(C=O)[C@H]3[C@@](O)(C(=O)OC)[C@H](OC(C)=O)[C@]5(CC)C=CCN6CC[C@]43[C@@H]65)C2)C1 [VCR]
- enhancement of antitumor activity by combined use with 4-piperidino-piperidine [2]: enhanced

SMILES: O=c1[nH]cc(F)c(=O)[nH]1 [5-FU, 5-Fluorouracil]
- enhancement of antitumor drug effect (lethal cells relative to standard cells) (T-ALL cells [1]; [7]): enhanced effects
- enhancement of antitumor activity by combined use with 4-piperidino-piperidine (T-ALL cells [3]; [8]): enhanced

SMILES: CCc1c2c(nc3ccc(OC(=O)N4CCC(N5CCCCC5)CC4)cc13)-c1cc3c(c(=O)n1C2)COC(=O)[C@]3(O)CC [CPT-11, 7-Ethyl-10-piperidino-piperidinocarboxycamptothecin]
- enhancement of antitumor drug effect (lethal cells relative to standard cells) (T-ALL cells [1]; 4-piperidino-piperidine precedently dosed at 25 and 50 μg/ml, CPT-11 10 μg/ml): enhanced

SMILES: CN(Cc1cnc2nc(N)nc(N)c2n1)c1ccc(C(=O)N[C@@H](CCC(=O)O)C(=O)O)cc1 [MTX]
- enhancement of antitumor drug effect (lethal cells relative to standard cells) (T-ALL cells [1]; [9]): enhanced effects
- enhancement of antitumor activity by combined use with 4-piperidino-piperidine [2]: enhanced

SMILES: COc1cccc2c1C(=O)c1c(O)c3c(c(O)c1C2=O)C[C@@](O)(C(C)=O)C[C@@H]3O[C@H]1C[C@H](N)[C@H](O)[C@H](C)O1 [DNR]
- enhancement of antitumor drug effect (lethal cells relative to standard cells) (T-ALL cells [1]; [7]): enhanced effects
- enhancement of antitumor activity by combined use with 4-piperidino-piperidine (T-ALL cells [3]; [8]): enhanced
- enhancement of antitumor activity by combined use with 4-piperidino-piperidine [2]: enhanced

SMILES: N.N.[Cl][Pt][Cl] [cisplatin]
- cell killing effect, single dose [4]: almost the same cell killing effect as that of the control group
- enhancement of antitumor activity by combined use with 4-piperidino-piperidine [2]: enhanced

SMILES: CCC1(O)CC(OC2CC(N(C)C)C(OC3CC(O)C(OC4CCC(=O)C(C)O4)C(C)O3)C(C)O2)c2c(cc3c(c2O)C(=O)c2c(O)cccc2C3=O)C1C(=O)OC (stereo not shown) [ACR]
- enhancement of antitumor drug effect (lethal cells relative to standard cells) (T-ALL cells [1]; [9]): enhanced effects
- enhancement of antitumor activity by combined use with 4-piperidino-piperidine (T-ALL cells [3]; [8]): enhanced

SMILES: C1CCN(C2CCNCC2)CC1 [4-piperidino-piperidine]
- number of propagated cells [5]: decreased in a dose-dependent manner
- number of lethal cells (tumor cell killing effect) ([5]; vs control): does not have tumor cell killing effect per se; also recorded: not significantly different from the count of the control group
- cell killing effect, single dose [4]: almost the same cell killing effect as that of the control group
- cell killing effect, simultaneous dose (resistance dissolving) ([4]; cisplatin and 4-piperidino-piperidine simultaneously dosed, compared with each dosed singly): significantly enhanced
- LD50 (Toxicity test): 200 to 300 mg/kg
